Measured values reported in patent publication US8048454B2, “Methods and compositions related to regulation of cytokine production by glycogen synthase kinase 3 (GSK-3)” (priority 2004, dated 2011).
Entries after “also recorded” stand apart in the source; their conditions may differ.

Columns and labels:
NF-κB = experiment: IκB-α degradation and NF-κB p65 phosphorylation, Western blot, LPS-stimulated monocytes; format: cell-based, human; details: 10 μM SB216763, 1 μg/ml E. coli LPS
Method: (§1) Human monocytes were pre-treated with medium only or 10 μM of SB216763 and then stimulated for the indicated time points with 1 μg/ml of E. coli LPS. The ability of E. coli LPS in the presence or absence of SB216763 to mediate the degradation and re-synthesis of (A) IκB-α and the phosphorylation of (B) NF-κB p65 (ser 276 or ser 536) were assessed by Western blot. […] The interaction of CBP with (F) NF-κB p65 and (G) CREB after treatment of cells with SB216763 (10 μM) were assessed by immunoprecipitation of CBP and probed for (F) NF-κB or (G) CREB levels by immunoblot. […]
To investigate the underlying cellular mechanism responsible for the ability of GSK-3 inhibition to suppress the production of pro-inflammatory cytokines while concurrently augmenting the production of the anti-inflammatory cytokine IL-10, the ability of how GSK-3 influenced the activation of downstream transcription factors involved in the inflammatory response was assessed. […] Since GSK-3 can mediate the phosphorylation of the p65 subunit of NF-κB, it was next determined if GSK-3 inhibition was exerting an effect on the phosphorylation status of the p65 subunit of NF-κB. […] Therefore, the nuclear levels of the NF-κB subunits p50 and p65 were analyzed in the presence or absence of the GSK-3 inhibitor SB216763 (FIG. 9C, D). […]

C57BL/6 mice [1] = experiment: Endotoxin shock model, survival after LD100 of LPS; format: in vivo, mouse
Method: Mice (sham-injected and LPS groups) were pre-treated with i.p. injection of 1 ml PBS containing 0.01% DMSO (vehicle control). SB216763-treated mice were administered 1 ml of PBS containing 30 μM of SB216763. After 2 h, mice pre-treated with SB216763 (denoted LPS+SB216763) or vehicle (denoted LPS group) were given 150 μg of LPS by i.p., injection. ** and *** indicate statistically significant differences at P<0.01 and P<0.001, respectively, as compared to LPS-treated group. Results represent the mean of 30 mice/group.
(§2) C57BL/6 mice were bred and maintained within the pathogen-free animal facility at UAB. Experimental endotoxic shock was induced in age- and sex-matched C57BL/6 mice (18 to 23 g) by intraperitoneal injection of 150 μg of LPS in PBS containing 0.1% DMSO. Mice pre-treated with the GSK-3 inhibitor SB216763 received 1 ml of PBS containing 30 μM of SB216763 (DMSO was at 0.01%) by i.p. injection. LPS-control and sham-injected mice were pre-treated (i.p. injection) with 1 ml of PBS containing 0.1% DMSO. Mice given the GSK-3 inhibitor SB216763 after LPS challenge received 1 ml of PBS containing 30 μM of SB216763 (DMSO was at 0.01%) by i.p. injection. LPS-control and sham-injected mice were administered (i.p.) 1 ml of PBS containing 0.01% DMSO. At 4 h after injection, blood from all groups of mice was obtained by retro-orbital plexus bleeding.
Male C57BL/6 mice (8 to 12 weeks of age; 18 to 23 g) were injected via the intraperitoneal route with an LD100 ([…]) of E. coli K235 LPS in 200 µl of PBS containing 0.1% DMSO. Mice were monitored over a 10 day period for survivability.

[2] = system: NF-κB p50, NF-κB p65, CREB; experiment: Nuclear NF-κB p50, NF-κB p65 and CREB binding activity (TransAM kit); format: cell-based, human; details: SB216763 pre-treatment 1 h; LPS; vs LPS alone
Method: (§3) Human monocytes were pre-treated with medium only or 10 μM of SB216763 and then stimulated for the indicated time points with 1 μg/ml of E. coli LPS. The ability of E. coli LPS in the presence or absence of SB216763 to mediate the degradation and re-synthesis of (A) IκB-α and the phosphorylation of (B) NF-κB p65 (ser 276 or ser 536) were assessed by Western blot. […] The interaction of CBP with (F) NF-κB p65 and (G) CREB after treatment of cells with SB216763 (10 μM) were assessed by immunoprecipitation of CBP and probed for (F) NF-κB or (G) CREB levels by immunoblot. (H) To determine the functional effect of GSK-3 regulating CREB activity in LPS-stimulated monocytes, cells were pre-treated for 96 h with medium only, siRNA targeting CREB, or control siRNA and assayed by Western blot for the levels of CREB and total p38. (I, J) Monocytes pre-treated with medium only, siRNA control, or siRNA targeting CREB for 96 h were stimulated with E. coli LPS for 20 h and cell-free supernatants assayed by ELISA for the levels of (I) IL-10 and (J) IL-12 p40. To ensure equal protein loading, immunoblots were striped and re-probed with total p38 (A, B, H) or total CBP (F, G). For nuclear extract analysis of (C) NF-κB p65, (D) NF-κB p50, and (E) CREB, optical density values were normalized by loading a standardized amount of protein, as indicated in the figure. * indicates statistical significance at P<0.05. For A, B, E, F, G, H, and I, results are representative of 3 separate experiments. For C and D, results represent the mean±SD of 3 separate experiments.
Human monocytes in 24-well polystyrene tissue culture plates were pretreated for 1 h with SB216763 or 0.01% DMSO and then incubated with medium alone or LPS for the indicated time points. Cells were collected, washed two times in PBS, and then assayed for activity using the TransAM kit specific for the given transcription factor (Active Motif, Carlsbad, Calif.). […]

CBP = experiment: Co-immunoprecipitation of CBP with NF-κB p65 and CREB; format: cell-based, human; details: SB216763 10 μM; LPS-stimulated monocytes
Method: as §1, with “immunoblot. (H) To determine the functional effect of GSK-3 regulating CREB activity in LPS-stimulated monocytes, cells were pre-treated for 96 h with medium only, siRNA targeting CREB, or control siRNA and assayed by Western blot for the levels of CREB and total p38.” for “immunoblot.”
Moreover, it has been shown that GSK-3 can negatively regulate the activation and nuclear binding properties of CREB. Therefore, it was next determined how GSK-3 inhibition was regulating the ability of nuclear CREB (ser133) to bind its consensus sequence (FIG. 9E). […] Since the levels of CREB binding activity were augmented by GSK-3 inhibition, it was determined if GSK-3 inhibition was affecting the ability of CREB (ser133) and NF-κ p65 (ser276) to associate with CBP by co-immunoprecipitation (FIG. 9F, G).

human CD4+ T cells = experiment: Cytokine production by anti-CD3 stimulated purified CD4+ T cells (ELISA); format: cell-based; details: plate-bound anti-CD3 10 μg/ml, 72 h
Method: Supernatants were analyzed for […] (IFN-γ) and Th2- (IL-10) type cytokines by ELISA. […] Thus, inhibition of GSK-3 at the T cell level also suppresses inflammatory cytokines while increasing anti-inflammatory cytokine production. Moreover, inhibition of GSK-3 can enhance Th2-type immune responses while suppressing Th1-type responses.

human monocytes = experiment: Cytokine production by E. coli LPS-stimulated monocytes (ELISA); format: cell-based
Method: FIG. 2 The ability of the PI3K pathway to differentially modulate the levels of pro- and anti-inflammatory cytokines is mediated by inhibition of GSK-3. Human monocytes were pre-incubated with medium only, 10 μM SB216763, 10 mM LiCl, 200 nM Azakenpaullone, BIO (50 nM), 1 μM Akt-i, or 20 μM LY294002 for 1 h and then stimulated with 1 μg/ml of E. coli LPS for 20 h. Cell-free supernatants were collected and assessed for (A, C) IL-10, (B, D) IL-12 p40, (E) TNF-α, or (F) IL-6 production by ELISA. * and *** indicates significant differences (P<0.05 and P<0.001, respectively) compared to E. coli LPS stimulated cultures. Results represent the mean±SD of 5 separate experiments.
(A) Monocytes were pre-treated for 96 h with medium, siRNA targeting GSK-3β, or control siRNA and assayed by Western blot for the levels of total GSK-3β and total p38. (B, C) Monocytes were pre-treated with medium only, siRNA control, or siRNA targeting GSK-3β for 96 h, stimulated with E. coli LPS for 20 h, and cell-free supernatants assayed by ELISA for the levels of (B) IL-10 and (C) IL-12 p40. * indicates significant differences (P<0.05) compared to LPS stimulated cultures. Results represent the mean±SD of 3 separate experiments.
as §3, with “For nuclear extract analysis of (C) NF-κB p65, (D) NF-κB p50, and (E) CREB, optical density values were normalized by loading a standardized amount of protein, as indicated in the figure. * indicates statistical significance at P<0.05. For A, B, E, F, G, H, and I, results are representative of 3 separate experiments. For C and D, results represent the mean±SD of 3 separate experiments.” left out
Human or mouse IL-1β, IL-10, IL-12 p40, and IFN-γ levels in the plasma of mice or cell-culture supernatants were determined by using enzyme-linked immunosorbent assay (ELISA) kits from R&D systems or Ebioscience according to manufacturer's instructions. […]

C57BL/6 mice [3] = experiment: In vivo cytokine production in LPS-challenged mice (plasma ELISA); parameters: species or system mouse; details: SB216763 2 h before 150 μg LPS i.p.
Method: SB216763-treated mice were given 1 ml of PBS containing 30 μM of SB216763. Sham-injected and LPS groups were given 1 ml of PBS containing vehicle (0.01% DMSO). After 2 h, mice pre-treated with SB216763 (denoted LPS+SB216763) or vehicle (denoted LPS group) were given 150 μg of LPS by i.p., injection. *** indicates statistically significant differences at P<0.001, as compared to LPS-treated group. Results represent the mean±SD of 10 mice/group.
as §2
Human or mouse IL-1β, IL-10, IL-12 p40, and IFN-γ levels in the plasma of mice or cell-culture supernatants were determined by using enzyme-linked immunosorbent assay (ELISA) kits from R&D systems or Ebioscience according to manufacturer's instructions.

**Q.** How did the “rate or extent of degradation or re-synthesis of IκB-α protein” value (NF-κB) turn out when Cn1cc(C2=C(c3ccc(Cl)cc3Cl)C(=O)NC2=O)c2ccccc21 [SB216763] was run?
**A.** failed to alter

**Q.** And the “level and duration of p65 phosphorylation (ser276 or ser536)” value (NF-κB; vs LPS alone)?
**A.** Neither the level nor duration

**Q.** What about the “LPS (endotoxin) lethality (in words)” value (C57BL/6 mice [1]; given 2 h before or 2 h after LD100 of LPS) of the same molecule?
**A.** mediates protection; also recorded: severe attenuation

**Q.** And the mice survived (C57BL/6 mice [1]; given 2 hours after LD100 of LPS, 1 ml PBS with 30 μM i.p., 0% in control-treated mice)?
**A.** approximately 55%

**Q.** What about the “mice protected from death” value (C57BL/6 mice [1]; given 2 hours before LD100 of LPS, 1 ml PBS with 30 μM i.p., 0% in control-treated mice) of the same molecule?
**A.** greater than 70%

**Q.** And the “late deaths among survivors” value (C57BL/6 mice [1]; monitored over a 10-day period, both treatment groups)?
**A.** no late deaths

**Q.** What about the “DNA-binding properties of CREB” value [2] of the same molecule?
**A.** significant increase

**Q.** What about the “nuclear levels of NF-κB p50 able to bind its consensus sequence” value [2] of the same molecule?
**A.** did not appear to be influenced

**Q.** And the “nuclear levels of NF-κB p65 able to bind its consensus sequence” value [2]?
**A.** did not appear to be influenced

**Q.** And the “levels of CREB bound to CBP” value (CBP)?
**A.** potently augmented

**Q.** And the “levels of p65 associated with CBP” value (CBP)?
**A.** pronounced decrease

**Q.** What about the “levels of IL-10” value (human CD4+ T cells) of the same molecule?
**A.** significantly enhanced

**Q.** And the “production of IFN-γ” value (human CD4+ T cells)?
**A.** suppress

**Q.** What about the “IL-10 levels compared to E. coli LPS-treated monocytes (in words)” value (human monocytes; inhibitor pre-incubation 1 h, 1 μg/ml E. coli LPS 20 h) of the same molecule?
**A.** approximate three-fold increase

**Q.** What about the “reduction in IL-12 p40 levels” value (human monocytes; inhibitor pre-incubation 1 h, 1 μg/ml E. coli LPS 20 h, vs LPS alone) of the same molecule?
**A.** ~80%

**Q.** What about the “level of IL-12 p40 in cultures pre-treated with siRNA against CREB (in words)” value (human monocytes; siRNA against CREB 96 h plus SB216763, LPS) of the same molecule?
**A.** did not appear to be altered

**Q.** What about the “IL-10 levels in cells pretreated with siRNA targeting CREB (in words)” value (human monocytes; siRNA targeting CREB 96 h plus SB216763, LPS, vs LPS stimulated controls) of the same molecule?
**A.** did not exhibit any discernible increase

**Q.** What about the “reduction of systemic levels of several pro-inflammatory cytokines” value (C57BL/6 mice [3]; IL-1β, IL-12 p40, IFN-γ, vs LPS-treated controls) of the same molecule?
**A.** more than 50%

**Q.** What about the “in vivo (systemic) levels of IL-1β, IL-12 and IFN-γ (in words)” value (C57BL/6 mice [3]) of the same molecule?
**A.** suppresses; also recorded: profound decrease

**Q.** What about the “in vivo levels of IL-10 (in words)” value (C57BL/6 mice [3]) of the same molecule?
**A.** enhanced

**Q.** What about the “increase of in vivo production of IL-10” value (C57BL/6 mice [3]; vs LPS-treated controls) of the same molecule?
**A.** more than 2 fold
